This test addresses T1, CDK2 (Homo sapiens, UniProt P24941).
T1 construct: The expressed protein was approximately 34 kDa in size; made in house; host or cells: SF9 insect cells (baculovirus, pFASTBAC)
Kind of test: CDK2 in vitro kinase assay (SPA, 33P-ATP, biotinylated Histone H1 peptide). It is filed as biochemical. The conditions noted are these: recombinant cyclin A or E-dependent CDK2 from baculovirus/SF9 cells; 1 hour at room temperature; 8 point dilutions in duplicate.

The source of these data is patent publication US7645762B2, “Substituted pyrazolo[1,5-a] pyrimidines as protein kinase inhibitors” (Schering Corporation, priority 2005, dated 2010).

One may read the IC50 as the midpoint of a concentration-inhibition curve. For `Nc1cc2nc(-c3ccccc3)cc(N)n2n1`, the IC50 was 80 nM.

As for `Nc1nn2c(N)cc(-c3ccccc3)nc2c1Br`, the 50% inhibitory concentration (IC50) worked out at 4670 nM.
